Assay type in all cases: in vivo
The subject of one data set is Stellaria media. As to the kind of experiment: Weeding effect in post-emergence stage (greenhouse pot spray). Summed up:
(§1)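 Pot-grown greenhouse plants, 2-3 leaf stage; spray-tower application; formulation acetone/Tween 80 plus methyl oleate EC 1.5 liter/ha as synergist; rates 500, 250, 125, 60, 15 g a.i./ha; assessed 3 wk post-treatment as fresh weight control, n=3.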

Another data set concerns Amaranthus retroflexus. The data set is described as above. Summed up: as §1
Data set [1] has as its system Japonica rice (Huaidao No. 5). As to the kind of experiment: Safety test of control experiments on rice. The text has this:
(§2) The activity level criteria for plant damage (i.e., growth control rate) are as follows: Comparative Experiments: [table]

The test system of data set [2] is Indica rice (Huanghuazhan). As to the kind of experiment: Safety test of control experiments on rice.
Description: as §2

In another data set the test system is Abutilon theophrasti. The data set is described as follows: Weeding effect in post-emergence stage (greenhouse pot spray). Put shortly:
as §1

The next data set deals with Digitaria sanguinalis. The description is as above. Summed up:
as §1

The test system of the next data set is Echinochloa crusgalli. Described as above. Put shortly:
as §1

The subject of data set [3] is rice and Echinochloa crusgali. As to the kind of experiment: Herbicide selection index between rice and Echinochloa crusgali. Particulars: average dose causing 10% phytotoxicity to rice divided by average dose causing 90% control efficiency to Echinochloa crusgali.
The next data set concerns weeds. As to the kind of experiment: Actual control effects and combined effects of mixtures of active ingredients (i) and (ii), stem-leaf treatment, Gowing method. Particulars: stem-leaf treatment, 20 days.
For a further data set, the system named is Setaria viridis. The data set is described as follows: Weeding effect in post-emergence stage (greenhouse pot spray). Summed up: as §1

Where only a bound is given, the exact number is not on record here.

For the molecule `CCCSc1c(C(F)(F)F)ccc(C(=O)Nc2nnc(C)o2)c1F` [Compound 1-7], the “Stellaria media (activity level)” value in the data set on Stellaria media (Table 2, dose 250 g a.i./ha) is listed as 5 (Level 5: growth control rate is above 85%); with Stellaria media (Table 2, dose 500 g a.i./ha), 5 (Level 5: growth control rate is above 85%). The “Amaranthus retroflexus (activity level)” value with Amaranthus retroflexus (Table 2, dose 250 g a.i./ha) was 5 (Level 5: growth control rate is above 85%); in the data set with Amaranthus retroflexus (Table 2, dose 500 g a.i./ha), 5 (Level 5: growth control rate is above 85%). Moreover, the “Japonica rice (Huaidao No. 5) (plant damage level)” value in data set [1] (Dose 250 g a.i./ha) is given as 0 (Level 0: growth control rate is less than 5%). Further, the “Indica rice (Huanghuazhan) (plant damage level)” value (“Indica rice (Huanghuazhan)” below) in [2] (Dose 250 g a.i./ha) is reported as 0 (Level 0: growth control rate is less than 5%). The “Abutilion theophrasti (activity level)” value with Abutilon theophrasti (Table 2, dose 250 g a.i./ha) is given as 5 (Level 5: growth control rate is above 85%); in the data set with Abutilon theophrasti (Table 2, dose 500 g a.i./ha), 5 (Level 5: growth control rate is above 85%). The “Digitaria sanguinalis (activity level)” value with Digitaria sanguinalis (Table 2, dose 250 g a.i./ha) was 5 (Level 5: growth control rate is above 85%); with Digitaria sanguinalis (Table 2, dose 500 g a.i./ha), 5 (Level 5: growth control rate is above 85%). Moreover, the “Echinochloa crusgah (activity level)” value in the data set on Echinochloa crusgalli (Table 2, dose 250 g a.i./ha) is 5 (Level 5: growth control rate is above 85%); in the data set on Echinochloa crusgalli (Table 2, dose 500 g a.i./ha) it was 5 (Level 5: growth control rate is above 85%). The “Selection index between rice and Echinochloa crusgali” value in data set [3] was more than 5.
On to `Cc1nnc(NC(=O)c2ccc(C(F)(F)F)c(N3CCCC3=O)c2Cl)o1` [Control Compound C, reference compound], for which the “Japonica rice (Huaidao No. 5) (plant damage level)” value in data set [1] (Dose 125 g a.i./ha) is 4 (Level 4: growth control rate is greater than or equal to 60% and less than 85%). Further, the “Indica rice (Huanghuazhan)” value in data set [2] (Dose 125 g a.i./ha) was 5 (Level 5: growth control rate is above 85%). The “Selection index between rice and Echinochloa crusgali” value in data set [3] is 1.1.
As to `CSc1c(C(F)(F)F)ccc(C(=O)Nc2nnc(C)o2)c1F` [Compound 1-1], the “Control effect of (i) alone at corresponding dose” value (from here on “Control effect of (i) alone”) in the data set with weeds (Cyperus difformis, (i) 1 g a.i./mu) worked out at 6.2%; in the data set on weeds (Cyperus difformis, (i) 5 g a.i./mu) it was 30.6%; in the data set with weeds (Echinochloa phyllopogon, (i) 1 g a.i./mu) it was 8.3%; with weeds (Echinochloa phyllopogon, (i) 2 g a.i./mu), 18.7%; in the data set with weeds (Echinochloa phyllopogon, (i) 3 g a.i./mu), 43.1%; with weeds (Leptochloa chinensis, (i) 5 g a.i./mu), 3.8%. For the same molecule, the “Control effect of (i) alone” value was found to be 20.3% in the data set with weeds (Leptochloa chinensis, (i) 15 g a.i./mu); 9.6% in the data set on weeds (Monochoria vaginalis, (i) 5 g a.i./mu); 12.3% in the data set with weeds (Monochoria vaginalis, (i) 6 g a.i./mu); 15.1% in the data set on weeds (Monochoria vaginalis, (i) 7.5 g a.i./mu); 23.9% with weeds (Monochoria vaginalis, (i) 15 g a.i./mu); 10.9% in the data set with weeds (Sagittaria trifolia, (i) 1 g a.i./mu). Also, the “Control effect of (i) alone” value in the data set on weeds (Sagittaria trifolia, (i) 5 g a.i./mu) is on record as 33.5%. In addition, the “Stellaria media (activity level)” value in the data set on Stellaria media (Table 2, dose 60 g a.i./ha) is 3 (Level 3: growth control rate is greater than or equal to 40% and less than 60%); in the data set on Stellaria media (Table 2, dose 125 g a.i./ha) it was 4 (Level 4: growth control rate is greater than or equal to 60% and less than 85%); in the data set on Stellaria media (Table 2, dose 250 g a.i./ha) it was 4 (Level 4: growth control rate is greater than or equal to 60% and less than 85%); in the data set with Stellaria media (Table 2, dose 500 g a.i./ha), 4 (Level 4: growth control rate is greater than or equal to 60% and less than 85%). Also, the “Amaranthus retroflexus (activity level)” value in the data set on Amaranthus retroflexus (Table 2, dose 60 g a.i./ha) is 4 (Level 4: growth control rate is greater than or equal to 60% and less than 85%); in the data set with Amaranthus retroflexus (Table 2, dose 125 g a.i./ha), 4 (Level 4: growth control rate is greater than or equal to 60% and less than 85%); with Amaranthus retroflexus (Table 2, dose 250 g a.i./ha) it was 4 (Level 4: growth control rate is greater than or equal to 60% and less than 85%); in the data set with Amaranthus retroflexus (Table 2, dose 500 g a.i./ha), 4 (Level 4: growth control rate is greater than or equal to 60% and less than 85%). Besides, the “Abutilion theophrasti (activity level)” value was 2 (Level 2: growth control rate is greater than or equal to 20% and less than 40%) in the data set with Abutilon theophrasti (Table 2, dose 60 g a.i./ha); 4 (Level 4: growth control rate is greater than or equal to 60% and less than 85%) in the data set with Abutilon theophrasti (Table 2, dose 125 g a.i./ha); 4 (Level 4: growth control rate is greater than or equal to 60% and less than 85%) in the data set with Abutilon theophrasti (Table 2, dose 250 g a.i./ha); 4 (Level 4: growth control rate is greater than or equal to 60% and less than 85%) in the data set on Abutilon theophrasti (Table 2, dose 500 g a.i./ha). For the same molecule, the “Abutilon theophrasti (activity level)” value is 2 (Level 2: growth control rate is greater than or equal to 20% and less than 40%) with Abutilon theophrasti (Table 3, dose 60 g a.i./ha); 4 (Level 4: growth control rate is greater than or equal to 60% and less than 85%) with Abutilon theophrasti (Table 3, dose 120 g a.i./ha). The “Digitaria sanguinalis (activity level)” value with Digitaria sanguinalis (Table 2, dose 60 g a.i./ha) is 1 (Level 1: growth control rate is greater than or equal to 5% and less than 20%); in the data set on Digitaria sanguinalis (Table 2, dose 125 g a.i./ha), 2 (Level 2: growth control rate is greater than or equal to 20% and less than 40%); in the data set on Digitaria sanguinalis (Table 2, dose 250 g a.i./ha), 3 (Level 3: growth control rate is greater than or equal to 40% and less than 60%); with Digitaria sanguinalis (Table 2, dose 500 g a.i./ha), 4 (Level 4: growth control rate is greater than or equal to 60% and less than 85%). In addition, the “Digitaria sanguinahs (activity level)” value in the data set with Digitaria sanguinalis (Table 3, dose 7.5 g a.i./ha) was 0 (Level 0: growth control rate is less than 5%); in the data set with Digitaria sanguinalis (Table 3, dose 15 g a.i./ha) it was 0 (Level 0: growth control rate is less than 5%); with Digitaria sanguinalis (Table 3, dose 30 g a.i./ha) it was 1 (Level 1: growth control rate is greater than or equal to 5% and less than 20%); with Digitaria sanguinalis (Table 3, dose 60 g a.i./ha), 1 (Level 1: growth control rate is greater than or equal to 5% and less than 20%); in the data set on Digitaria sanguinalis (Table 3, dose 120 g a.i./ha), 2 (Level 2: growth control rate is greater than or equal to 20% and less than 40%). In addition, the “Setaria viridis (activity level)” value in the data set on Setaria viridis (Table 3, dose 7.5 g a.i./ha) was 0 (Level 0: growth control rate is less than 5%); in the data set on Setaria viridis (Table 3, dose 15 g a.i./ha), 0 (Level 0: growth control rate is less than 5%); with Setaria viridis (Table 3, dose 30 g a.i./ha) it was 1 (Level 1: growth control rate is greater than or equal to 5% and less than 20%); in the data set with Setaria viridis (Table 3, dose 60 g a.i./ha) it was 1 (Level 1: growth control rate is greater than or equal to 5% and less than 20%); in the data set with Setaria viridis (Table 3, dose 120 g a.i./ha), 2 (Level 2: growth control rate is greater than or equal to 20% and less than 40%). In addition, the “Echinochloa crusgah (activity level)” value in the data set on Echinochloa crusgalli (Table 2, dose 60 g a.i./ha) was 2 (Level 2: growth control rate is greater than or equal to 20% and less than 40%); with Echinochloa crusgalli (Table 2, dose 125 g a.i./ha), 4 (Level 4: growth control rate is greater than or equal to 60% and less than 85%); in the data set on Echinochloa crusgalli (Table 2, dose 250 g a.i./ha) it was 4 (Level 4: growth control rate is greater than or equal to 60% and less than 85%); with Echinochloa crusgalli (Table 2, dose 500 g a.i./ha), 4 (Level 4: growth control rate is greater than or equal to 60% and less than 85%). The “Echinochloa crusgali (activity level)” value was 0 (Level 0: growth control rate is less than 5%) in the data set with Echinochloa crusgalli (Table 3, dose 7.5 g a.i./ha); 1 (Level 1: growth control rate is greater than or equal to 5% and less than 20%) in the data set with Echinochloa crusgalli (Table 3, dose 15 g a.i./ha); 2 (Level 2: growth control rate is greater than or equal to 20% and less than 40%) with Echinochloa crusgalli (Table 3, dose 30 g a.i./ha); 2 (Level 2: growth control rate is greater than or equal to 20% and less than 40%) in the data set on Echinochloa crusgalli (Table 3, dose 60 g a.i./ha).
As to `CCS(=O)(=O)c1c(C(F)(F)F)ccc(C(=O)Nc2nnc(C)o2)c1Cl` [Control Compound D, reference compound], the “Japonica rice (Huaidao No. 5) (plant damage level)” value in [1] (Dose 60 g a.i./ha) is 5 (Level 5: growth control rate is above 85%). Also, the “Indica rice (Huanghuazhan)” value in data set [2] (Dose 60 g a.i./ha) is on record as 5 (Level 5: growth control rate is above 85%). In addition, the “Selection index between rice and Echinochloa crusgali” value in [3] was determined as 1.
Take `Cc1nnc(NC(=O)c2ccc(C(F)(F)F)c(S(C)(=O)=O)c2C)o1` [Control Compound B, reference compound]: the “Japonica rice (Huaidao No. 5) (plant damage level)” value was 3 (Level 3: growth control rate is greater than or equal to 40% and less than 60%) in [1] (Dose 125 g a.i./ha); 3 (Level 3: growth control rate is greater than or equal to 40% and less than 60%) in [1] (Dose 250 g a.i./ha). The “Indica rice (Huanghuazhan)” value in data set [2] (Dose 125 g a.i./ha) was 3 (Level 3: growth control rate is greater than or equal to 40% and less than 60%); in [2] (Dose 250 g a.i./ha), 4 (Level 4: growth control rate is greater than or equal to 60% and less than 85%). Also, in data set [3], the “Selection index between rice and Echinochloa crusgali” value was determined as 0.8.

The values are drawn from patent US20230041563A1, “N-(1,3,4-OXADIAZOL-2-YL)ARYLCARBOXAMIDES OR SALTS THEREOF, PREPARATION METHODS, HERBICIDAL COMPOSITIONS AND USES THEREOF” (priority 2018, published 2023).
